Assay results: patent US4069035A, “1-(2-Carboxyaryl)-3-aryl-1,2,4-triazoles and use as herbicides” (E. I. Du Pont de Nemours and Company, priority 1976, dated 1978)

Assays:
[1] = test system: soybeans; test: postemergence plant growth test; type: in vivo; conditions: 2k/ha
Source text: (§1) The imidazole and triazole compounds of the invention are useful as plant growth modifiers when applied to plants. The compounds are applied to the immediate area where the plant is developing and growing, including preemergence and postemergence application.

[2] = test system: sorghum; test: postemergence plant growth test; type: in vivo; conditions: 2k/ha
Source text: as §1

[3] = test system: bush beans; test: postemergence plant growth test; type: in vivo; conditions: 2k/ha
Source text: as §1

[4] = test system: rice; test: postemergence plant growth test; type: in vivo; conditions: 2k/ha
Source text: as §1

[5] = test system: cassia; test: postemergence plant growth test; type: in vivo; conditions: 2k/ha
Source text: as §1

[6] = test system: wheat; test: postemergence plant growth test; type: in vivo; conditions: 2k/ha
Source text: as §1

[7] = test system: cocklebur; test: postemergence plant growth test; type: in vivo; conditions: 2k/ha
Source text: as §1

[8] = test system: corn; test: postemergence plant growth test; type: in vivo; conditions: 2k/ha
Source text: as §1

[9] = test system: nutsedge; test: postemergence plant growth test; type: in vivo; conditions: 2k/ha
Source text: as §1

[10] = test system: wild oats; test: postemergence plant growth test; type: in vivo; conditions: 2k/ha
Source text: as §1

[11] = test system: morning glory; test: postemergence plant growth test; type: in vivo; conditions: 2k/ha
Source text: as §1

[12] = test system: soybeans; test: preemergence plant growth test; type: in vivo; conditions: 2k/ha
Source text: as §1

[13] = test system: rice; test: preemergence plant growth test; type: in vivo; conditions: 2k/ha
Source text: as §1

[14] = test system: cassia; test: preemergence plant growth test; type: in vivo; conditions: 2k/ha
Source text: as §1

[15] = test system: wheat; test: preemergence plant growth test; type: in vivo; conditions: 2k/ha
Source text: as §1

[16] = test system: cocklebur; test: preemergence plant growth test; type: in vivo; conditions: 2k/ha
Source text: as §1

[17] = test system: corn; test: preemergence plant growth test; type: in vivo; conditions: 2k/ha
Source text: as §1

[18] = test system: nutsedge; test: preemergence plant growth test; type: in vivo; conditions: 2k/ha
Source text: as §1

[19] = test system: wild oats; test: preemergence plant growth test; type: in vivo; conditions: 2k/ha
Source text: as §1

[20] = test system: crabgrass; test: preemergence plant growth test; type: in vivo; conditions: 2k/ha
Source text: as §1

[21] = test system: barnyard grass; test: preemergence plant growth test; type: in vivo; conditions: 2k/ha
Source text: as §1

[22] = test system: morning glory; test: preemergence plant growth test; type: in vivo; conditions: 2k/ha
Source text: as §1

[23] = pKa by titration against aqueous NaOH (half neutralization point), buffer range; type: physicochemical
Method: The selected acids listed in Table IX (65-84 mg samples, weighed accurately) were respectively dissolved in a mixture of dimethylsulfoxide (25 ml) and water (10-25 ml) and titrated against 0.09995N aqueous sodium hydroxide using an automatic titrimeter (Metrohm Potentiograph Model E 336). According to the general theory of buffer solutions (A. I. Vogel, "A Textbook of Quantitative Inorganic Analysis, Theory and Practice," Longmans, Green, London (1948)), the following relationship exists in a dilute solution (0.05-0.2M) of a weak acid to which small additions of acid or base are made
pH = pKa + log [Salt]/[Acid]
The pH of the solution is mainly determined by the pKa of the acid, and in general the buffering capacity (ability to withstand pH change upon addition of acid or base) is maintained within the range 1 acid:10 salt to 10 acid:1 salt, a hundred-fold variation of concentration, or a change of two pH units. The buffer ranges of each of the acids is shown in the third column of Table IX. The acids are useful as buffers in weakly acidic solutions.

With `O=C(O)c1ccccc1-n1cnc(-c2ccccc2)c1` [Example 1, 1-(2-carboxyphenyl)-4-phenylimidazole] the epinastic response [1] was “epinastic response”, the epinastic response [2] was “epinastic response” and the epinastic response [3] was “epinastic response”. For the same compound, the epinastic response [4] was “epinastic response”, the epinastic response [5] was “epinastic response” and the epinastic response [6] was “epinastic response”. The epinastic response [7] was “epinastic response”, the epinastic response [8] was “epinastic response” and the growth [9] was “retarded”. For the same compound, the epinastic response [10] was “epinastic response”, the epinastic response [11] was “epinastic response” and the emergence ([12]; soybean) was “inhibited”. For the same compound, the epinastic response ([12]; soybeans) was “very strong hormonal effect (epinastic response)”, the epinastic response [13] was “very strong hormonal effect (epinastic response)” and the epinastic response [14] was “very strong hormonal effect (epinastic response)”. For the same compound, the epinastic response [15] was “very strong hormonal effect (epinastic response)”, the epinastic response [16] was “very strong hormonal effect (epinastic response)” and the epinastic response [17] was “very strong hormonal effect (epinastic response)”. For the same compound, the emergence [18] was “inhibited”, the emergence [19] was “inhibited” and the emergence [20] was “inhibited”. The epinastic response [21] was “very strong hormonal effect (epinastic response)”, the epinastic response [22] was “very strong hormonal effect (epinastic response)” and the pKa ([23]; dimethylsulfoxide/water, 0.09995N NaOH, half neutralization point) was 4.91. For the same compound, the “Buffer Range” value ([23]; range 1 acid:10 salt to 10 acid:1 salt) was 3.9 - 5.9 pH Units.
